Measurements taken from ChEMBL document CHEMBL5055653, “Synthesis, microbiological evaluation and structure activity relationship analysis of linezolid analogues with different C5-acylamino substituents” (2021).
Active and inactive are the calls of the source.

Assays:
Staphylococcus aureus [1] = experiment: Antibacterial activity against Staphylococcus aureus 1199B assessed as reduction in bacterial growth incubated for 20 hrs by microplate reader method; type: functional
Staphylococcus aureus [2] = experiment: Antibacterial activity against Staphylococcus aureus USA 300 assessed as reduction in bacterial growth incubated for 20 hrs by microplate reader method; type: functional
Enterococcus faecalis [3] = experiment: Antibacterial activity against Vanomycin-sensitive Enterococcus faecalis NCTC 775 assessed as reduction in bacterial growth incubated for 20 hrs by microplate reader method; type: functional
Staphylococcus aureus [4] = experiment: Antibacterial activity against Staphylococcus aureus NCTC 13616 assessed as reduction in bacterial growth incubated for 20 hrs by microplate reader method; type: functional
Enterococcus faecalis [5] = experiment: Antibacterial activity against Vanomycin-resistant Enterococcus faecalis NCTC 12201 assessed as reduction in bacterial growth incubated for 20 hrs by microplate reader method; type: functional
Staphylococcus aureus [6] = experiment: Antibacterial activity against Staphylococcus aureus ATCC 9144 assessed as reduction in bacterial growth incubated for 20 hrs by microplate reader method; type: functional
Enterococcus faecium = experiment: Antibacterial activity against Vanomycin-resistant Enterococcus faecium NCTC 12204 assessed as reduction in bacterial growth incubated for 20 hrs by microplate reader method; type: functional
Escherichia coli = experiment: Antibacterial activity against Escherichia coli NCTC 12923 assessed as reduction in bacterial growth incubated for 20 hrs in presence of PMBN by microplate reader method; type: functional, organism-based
Pseudomonas aeruginosa [7] = experiment: Antibacterial activity against Pseudomonas aeruginosa PAO1 assessed as reduction in bacterial growth incubated for 20 hrs in presence of PMBN by microplate reader method; type: functional
Pseudomonas aeruginosa [8] = experiment: Antibacterial activity against Pseudomonas aeruginosa NCTC 13437 assessed as reduction in bacterial growth incubated for 20 hrs in presence of PMBN by microplate reader method; type: functional, organism-based
Acinetobacter baumannii [9] = experiment: Antibacterial activity against Acinetobacter baumannii AYE assessed as reduction in bacterial growth incubated for 20 hrs in presence of PMBN by microplate reader method; type: functional, organism-based
Acinetobacter baumannii [10] = experiment: Antibacterial activity against Acinetobacter baumannii ATCC 17978 assessed as reduction in bacterial growth incubated for 20 hrs in presence of PMBN by microplate reader method; type: functional, organism-based

CCC(=O)NC[C@H]1CN(c2ccc(N3CCOCC3)c(F)c2)C(=O)O1
4 µg/mL: MIC (Staphylococcus aureus [1]) | MIC (Enterococcus faecalis [3]) | MIC (Staphylococcus aureus [4]) | MIC (Enterococcus faecalis [5]) | MIC (Enterococcus faecium)
8 µg/mL: MIC (Staphylococcus aureus [2]) | MIC (Staphylococcus aureus [6])

CCCC(=O)NC[C@H]1CN(c2ccc(N3CCOCC3)c(F)c2)C(=O)O1
8 µg/mL: MIC (Staphylococcus aureus [1]) | MIC (Enterococcus faecalis [3]) | MIC (Staphylococcus aureus [4]) | MIC (Enterococcus faecalis [5]) | MIC (Staphylococcus aureus [6]) | MIC (Enterococcus faecium)
16 µg/mL: MIC (Staphylococcus aureus [2])

NCCC(=O)NC[C@H]1CN(c2ccc(N3CCOCC3)c(F)c2)C(=O)O1
16 µg/mL: MIC (Enterococcus faecium)
> 128 µg/mL: MIC (Staphylococcus aureus [1]) | MIC (Staphylococcus aureus [2]) | MIC (Enterococcus faecalis [3]) | MIC (Staphylococcus aureus [4]) | MIC (Staphylococcus aureus [6])
128 µg/mL: MIC (Enterococcus faecalis [5])

CN1CCC(C(=O)NC[C@H]2CN(c3ccc(N4CCOCC4)c(F)c3)C(=O)O2)C1 (stereo not given in full)
> 128 µg/mL: MIC (Staphylococcus aureus [1]) | MIC (Staphylococcus aureus [2]) | MIC (Enterococcus faecalis [3]) | MIC (Staphylococcus aureus [4]) | MIC (Enterococcus faecalis [5]) | MIC (Staphylococcus aureus [6]) | MIC (Enterococcus faecium)

NCCCC(=O)NC[C@H]1CN(c2ccc(N3CCOCC3)c(F)c2)C(=O)O1
> 128 µg/mL: MIC (Staphylococcus aureus [1]) | MIC (Staphylococcus aureus [2]) | MIC (Enterococcus faecalis [3]) | MIC (Staphylococcus aureus [4]) | MIC (Enterococcus faecalis [5]) | MIC (Staphylococcus aureus [6])
64 µg/mL: MIC (Enterococcus faecium)

CC(C)C(=O)NC[C@H]1CN(c2ccc(N3CCOCC3)c(F)c2)C(=O)O1
16 µg/mL: MIC (Staphylococcus aureus [2]) | MIC (Enterococcus faecalis [3]) | MIC (Staphylococcus aureus [4]) | MIC (Staphylococcus aureus [6])
8 µg/mL: MIC (Staphylococcus aureus [1]) | MIC (Enterococcus faecalis [5]) | MIC (Enterococcus faecium)

O=C(NC[C@H]1CN(c2ccc(N3CCOCC3)c(F)c2)C(=O)O1)c1ccccc1
64 µg/mL: MIC (Staphylococcus aureus [6])
32 µg/mL: MIC (Staphylococcus aureus [2]) | MIC (Enterococcus faecalis [3]) | MIC (Staphylococcus aureus [4])
16 µg/mL: MIC (Staphylococcus aureus [1]) | MIC (Enterococcus faecalis [5]) | MIC (Enterococcus faecium)

O=C(NC[C@H]1CN(c2ccc(N3CCOCC3)c(F)c2)C(=O)O1)[C@H]1CCNC1
inactive: Activity (Escherichia coli) | Activity (Pseudomonas aeruginosa [7]) | Activity (Pseudomonas aeruginosa [8]) | Activity (Acinetobacter baumannii [9]) | Activity (Acinetobacter baumannii [10])
> 128 µg/mL: MIC (Staphylococcus aureus [1]) | MIC (Staphylococcus aureus [2]) | MIC (Enterococcus faecalis [3]) | MIC (Staphylococcus aureus [4]) | MIC (Enterococcus faecalis [5]) | MIC (Staphylococcus aureus [6]) | MIC (Enterococcus faecium)

Cc1ncsc1C(=O)NC[C@H]1CN(c2ccc(N3CCOCC3)c(F)c2)C(=O)O1
inactive: Activity (Escherichia coli) | Activity (Pseudomonas aeruginosa [8]) | Activity (Acinetobacter baumannii [9]) | Activity (Acinetobacter baumannii [10])
16 µg/mL: MIC (Pseudomonas aeruginosa [7]) | MIC (Staphylococcus aureus [2]) | MIC (Staphylococcus aureus [4]) | MIC (Enterococcus faecalis [5]) | MIC (Staphylococcus aureus [6]) | MIC (Enterococcus faecium)
32 µg/mL: MIC (Staphylococcus aureus [1]) | MIC (Enterococcus faecalis [3])

O=C(NC[C@H]1CN(c2ccc(N3CCOCC3)c(F)c2)C(=O)O1)C1CCCS1 (stereo not given in full)
64 µg/mL: MIC (Staphylococcus aureus [6])
32 µg/mL: MIC (Staphylococcus aureus [1]) | MIC (Staphylococcus aureus [2]) | MIC (Enterococcus faecalis [3]) | MIC (Staphylococcus aureus [4]) | MIC (Enterococcus faecalis [5]) | MIC (Enterococcus faecium)

O=C(NC[C@H]1CN(c2ccc(N3CCOCC3)c(F)c2)C(=O)O1)c1ccsc1
8 µg/mL: MIC (Staphylococcus aureus [1]) | MIC (Enterococcus faecalis [5]) | MIC (Enterococcus faecium)
16 µg/mL: MIC (Staphylococcus aureus [2]) | MIC (Enterococcus faecalis [3]) | MIC (Staphylococcus aureus [4]) | MIC (Staphylococcus aureus [6])

O=C(NC[C@H]1CN(c2ccc(N3CCOCC3)c(F)c2)C(=O)O1)c1cncs1
16 µg/mL: MIC (Pseudomonas aeruginosa [7]) | MIC (Staphylococcus aureus [1]) | MIC (Staphylococcus aureus [2]) | MIC (Enterococcus faecalis [3]) | MIC (Staphylococcus aureus [4]) | MIC (Enterococcus faecalis [5]) | MIC (Staphylococcus aureus [6]) | MIC (Enterococcus faecium)
inactive: Activity (Escherichia coli) | Activity (Pseudomonas aeruginosa [8]) | Activity (Acinetobacter baumannii [9]) | Activity (Acinetobacter baumannii [10])

O=C(NC[C@H]1CN(c2ccc(N3CCOCC3)c(F)c2)C(=O)O1)c1cc2ncccc2o1
8 µg/mL: MIC (Enterococcus faecalis [5])
16 µg/mL: MIC (Staphylococcus aureus [1]) | MIC (Staphylococcus aureus [2]) | MIC (Enterococcus faecalis [3]) | MIC (Staphylococcus aureus [4]) | MIC (Staphylococcus aureus [6]) | MIC (Enterococcus faecium)

O=C(NC[C@H]1CN(c2ccc(N3CCOCC3)c(F)c2)C(=O)O1)c1cnc(Br)s1
8 µg/mL: MIC (Enterococcus faecium)
16 µg/mL: MIC (Pseudomonas aeruginosa [7]) | MIC (Staphylococcus aureus [4]) | MIC (Enterococcus faecalis [5]) | MIC (Staphylococcus aureus [6])
32 µg/mL: MIC (Staphylococcus aureus [1]) | MIC (Staphylococcus aureus [2]) | MIC (Enterococcus faecalis [3])
inactive: Activity (Escherichia coli) | Activity (Pseudomonas aeruginosa [8]) | Activity (Acinetobacter baumannii [9]) | Activity (Acinetobacter baumannii [10])

O=C(NC[C@H]1CN(c2ccc(N3CCOCC3)c(F)c2)C(=O)O1)c1cnco1
64 µg/mL: MIC (Enterococcus faecalis [3])
inactive: Activity (Escherichia coli) | Activity (Pseudomonas aeruginosa [7]) | Activity (Pseudomonas aeruginosa [8]) | Activity (Acinetobacter baumannii [9]) | Activity (Acinetobacter baumannii [10])
> 128 µg/mL: MIC (Staphylococcus aureus [2])
128 µg/mL: MIC (Staphylococcus aureus [1]) | MIC (Staphylococcus aureus [4]) | MIC (Enterococcus faecalis [5]) | MIC (Staphylococcus aureus [6]) | MIC (Enterococcus faecium)
